Measured values taken from ChEMBL document CHEMBL1121498, “Conformationally restricted phenothiazine neuroleptics. 1. 3-(Dimethylamino)-1,2,3,4-tetrahydroazepino[3,2,1-kl]phenothiazine” (J Med Chem, 1980).

Legend:
[1] = Compound was tested for inhibition of [3H]spiperone binding in membrane preparations obtained from calf caudate.; parameters: species or system Bos taurus
Rattus norvegicus [2] = species on record: Rattus norvegicus; assay: (§1) Compound was tested for inhibition of [3H]spiperone binding in membrane preparations obtained from rat corpus striatum.; type: functional
Rattus norvegicus [3] = species on record: Rattus norvegicus; assay: Percentage increase in rat corpus striatal HVA synthesis; type: functional
Dopamine receptor [4] = assay: as §1
Rattus norvegicus [5] = assay: Compound was evaluated for its ability to stimulate the synthesis of homovanillic acid (HVA) in rat in vivo; type: functional
Dopamine receptor [6] = biological target: Dopamine receptor (Bos taurus, UniProt Q95136+P20288)

CN(C)C1CCN2c3ccccc3Sc3cccc(c32)C1 (configuration not stated)
IC50 [1]: 2400 nM | IC50 (Rattus norvegicus [2]): 2150 nM | Increase (Rattus norvegicus [3]): 24%

CN(C)CCCN1c2ccccc2Sc2ccccc21 [PROMAZINE]
IC50 (Dopamine receptor [4]): 1040 nM | ED50 (Rattus norvegicus [5]): 200 µmol/kg | IC50 (Dopamine receptor [6]): 130 nM | Increase (Rattus norvegicus [3]): 250%
